{"source": "patent US9290474B2", "about": "“Methods for making and using novel semi-synthetic small molecules for the treatment parasitic disease” (The Regents of the University of California, priority 2011, dated 2016)", "system": "T. brucei brucei", "test": "Screening against T. brucei (antiparasitic activity)", "assay_type": "cell-based, Trypanosoma brucei", "details": "initial screening"}
{"smiles": "CC1(C)C=CC(=O)[C@@]2(C)OOC3C[C@]12CCC3(O)CO", "note": "(stereo partly shown) [Merulin C, merulin C]", "values": [{"measurement": "activity against T. brucei brucei", "result": 0.8, "unit": "µM"}]}
